Laboratory results from PubChem BioAssay AID720513 (Broad Institute, 2013).
Records with an inconclusive call do not appear.

system: U2OS PGC1a acetylation AlphaLISA, overnight; assay: PGC1a acetylation increase, cellular AlphaLISA – cell-based, cherry-picked samples, set 6, dose response (AID 720513);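 also: cells made to overexpress flag tagged PGC1a plus GCN5 acetyltransferase by viral infection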

| Compound | AC40 [µM] |
| --- | --- |
| Cc1ccc(CNC(=O)C2CC(c3ccc([N+](=O)[O-])cc3)=NO2)cc1 (stereo not drawn) | 4 |
| C[C@@H]1CN([C@@H](C)CO)C(=O)c2c(c3ccccc3n2C)-c2ccccc2CO[C@@H]1CN(C)C(=O)c1cc(Cl)cc(Cl)c1 | 12.7 |
| Cc1cc(C)c2nc(N(CCCN(C)C)C(=O)c3ccc(S(=O)(=O)N4CCCCCC4)cc3)sc2c1 | 2.9 |
| O=C(CS(=O)CC(=O)Nc1cccc2c1CCCC2)Nc1ccc(F)cc1 (stereo not drawn) | 10.9 |
| COc1ccc(CCC(=O)NCCS(=O)(=O)N2CCN(c3ccccc3)CC2)cc1 | 13.4 |
| Cc1ccc(CN(CC(O)COc2cccc3[nH]cc(C)c23)C(C)(C)C)cc1 (stereo not drawn) | 2.49 |
| CC1(C)CCCN(C(=O)N2c3ccccc3Sc3ccccc32)C1 | 1.33 |
| CC1=CC(C)(C)N2C(=O)C3(SCC(=O)N3c3ccc(F)cc3)c3cc(C)cc1c32 (stereo not drawn) | 0.966 |
| O=C(Cc1ccccc1)N1CCN(c2ccc([N+](=O)[O-])cc2)CC1 | 0.523 |
| Nc1ccccc1Oc1ncc(C(F)(F)F)cc1Cl | 7.04 |
| O=C(Cc1ccccc1)Nc1cccc(-c2nc3ncccc3o2)c1 | 2.71 |
| COc1ccc(CCNCc2ccc(-c3ccccc3)cc2)cc1OC | 2.23 |
| Cc1cc(C(=O)NNS(=O)(=O)c2ccc(F)cc2)nn1C(C)(C)C | 1.09 |
| Nc1c(C(=O)Nc2ccccc2)sc2ncc([N+](=O)[O-])cc12 | 1.06 |
| CSCCC(c1nnnn1-c1c(C)cccc1C)N1CCC(n2c(=O)[nH]c3ccccc32)CC1 (stereo not drawn) | 1.32 |
| COc1ccc(CCNC(=O)c2cc(-c3ccco3)on2)cc1OC | 5.2 |
| COc1cc(CN2CC3(CCN(S(=O)(=O)c4cccs4)CC3)c3c(n(C)c4cc(OC)ccc34)[C@H]2CO)cc(OC)c1 | 14.3 |
| O=C(CSc1nnc(Cn2cnc3ccccc32)o1)c1ccccc1 | 7.68 |
| CCCCCOC(=O)Cc1c(O)c2ccccc2n(C)c1=O | 9.64 |
| CCOc1ccc(NC(=O)CN2CCC(n3cnc4cc(F)ccc43)CC2)cc1 | 2.84 |
| COc1ccc(Nc2nnc(C)c3ccccc23)cc1 | 5.12 |
| CCOC(=O)c1oc2ccc(S(=O)(=O)N3CCC(C)CC3)cc2c1C | 17.1 |
| O=C(c1cc(C2CC2)on1)N1CCCC(N2CCN(c3cccc(C(F)(F)F)c3)CC2)C1 (stereo not drawn) | 10.8 |
| N#Cc1cccc(C(c2nnnn2C2CCCC2)N2CCCCCC2)c1 (stereo not drawn) | 1.24 |
| CCOc1ccc(S(=O)(=O)N2c3ccccc3CC2C)cc1 (stereo not drawn) | 11.5 |
| Cc1ccc(NC(=O)c2c(C(F)(F)F)nn(C)c2SCc2ccc(Cl)cc2)cc1C | 5.5 |

| Compound | AC40 [µM] |
| --- | --- |
| O=C(Nc1ccc(-c2noc(CCc3ccccc3)n2)cc1)c1cccnc1 | 0.346 |
| Cc1nnc(NCc2ccccc2)c2ccccc12 | 3.04 |
| COc1ccc(S(=O)(=O)NNC(=O)c2csc(-n3nc(C)cc3C(F)(F)F)n2)cc1 | 7.43 |
| COc1ccc(C(c2ccc(OC)cc2)C(Cl)(Cl)Cl)cc1 | 0.729 |
| CCOc1ccc(N(C)S(=O)(=O)c2cc(-c3cc(C)no3)ccc2OC)cc1 | 5.29 |
| CSc1nc(NCc2ccco2)c2ccccc2n1 | 13.6 |
| Cc1cc(C)nc(NC(=O)c2c(-c3ccccc3Cl)noc2C)n1 | 16.8 |
| O=C(NCc1ccc(Cl)cc1)C1CCC(CNc2c(N3CCCC3)c(=O)c2=O)CC1 (stereo not drawn) | 6.36 |
| O=C(CN1CCC(n2nnc3cc(F)ccc32)CC1)NCc1ccco1 | 1.69 |
| COc1ccc(-c2csc3nc(C)nc(N4CCC(C)CC4)c23)cc1OC | 3.8 |
| O=C(c1ccccc1Nc1ccc(SC(F)F)cc1)N1CCCCCC1 | 10.3 |
| C[C@@H]1CN([C@H](C)CO)C(=O)c2cc(N(C)C)ccc2O[C@@H](C)CCCCO[C@H]1CN(C)C(=O)Cc1ccccc1 | 5.69 |
| Cc1cc(Nc2cccc(Cl)c2)c2ccccc2n1 | 6.94 |
| c1ccc(N2CCN(c3ccccc3)C2c2ccncc2)cc1 | 0.244 |
| Cc1ccc(-c2nnc(N3CCN(C(=O)COc4ccccc4)CC3)c3ccccc23)cc1 | 0.734 |
| O=C(C1CCC1)N1CCN(S(=O)(=O)c2ccccc2)CC1 | 2.24 |
| COc1ccc2nc3c(cc2c1)c(NC(=O)c1cccs1)nn3CC(C)C | 5.35 |
| CCOC(=O)c1ccccc1NS(=O)(=O)c1ccc(OCC)cc1 | 3.3 |
| CC(=O)Nc1ccc(NC(=O)CN(c2cc(Cl)ccc2Cl)S(C)(=O)=O)cc1 | 1.14 |
| O=C(Nc1ccc2c(c1)OCO2)C1CCN(c2ccc(S(=O)(=O)N3CCOCC3)cc2)CC1 | 9.15 |
| O=C(Nc1cnc2ccccc2c1)c1cccnc1 | 0.651 |
| O=C(c1ccco1)N1CCN(c2nnc(-c3ccccc3)c3ccccc23)CC1 | 4.28 |
| C[C@@H]1CN([C@H](C)CO)C(=O)c2c(c3ccccc3n2C)-c2ccccc2CO[C@@H]1CN(C)C(=O)Nc1cccc(C(F)(F)F)c1 | 10.5 |
| CCOC(=O)C1CCCN(S(=O)(=O)c2ccc3c(c2)NC(=O)CO3)C1 (stereo not drawn) | 0.439 |
| O=C(CSc1nc2ccccc2c(=O)n1CC1CCCO1)N1CCN(c2ccccc2)CC1 (stereo not drawn) | 18.6 |
| CC(C)(C)c1ccc(C(=O)Nc2ccc(C(=O)NCc3cccnc3)cc2)cc1 | < 0.16 |

| Compound | AC40 [µM] |
| --- | --- |
| COc1ccc(-c2cc(-c3ccccc3O)[nH]n2)cc1OC | 7.33 |
| COc1ccc(S(=O)(=O)N(C)C[C@@H]2Oc3cc(C#CC4CC4)ccc3S(=O)(=O)N([C@@H](C)CO)C[C@@H]2C)cc1 | 15.2 |
| CC(C)C(c1nnnn1Cc1ccccc1)N(Cc1ccco1)Cc1cccs1 (stereo not drawn) | 0.907 |
| CCOC(=O)C1=CC[C@@H](c2ccccc2)N(S(=O)(=O)c2ccc(C)cc2)[C@H]1c1ccc(CC)cc1 | 0.785 |
| Cc1ccc(/C(N)=N/OC(=O)c2ccco2)cc1 | 8.81 |
| COc1ccc([C@H]2/C=C\CN(S(=O)(=O)/C=C/c3ccccc3)[C@@H](C)C(=O)N2Cc2ccc(F)cc2)cc1 | 5.99 |
| CC(=O)c1cccc(N(C(=O)c2cnccn2)C(C(=O)NCc2ccccc2)c2ccco2)c1 (stereo not drawn) | 1.39 |
| CC1(Cc2ccc(Cl)s2)C(=O)Nc2c(Cl)ccc(Cl)c21 (stereo not drawn) | 11.3 |
| O=[N+]([O-])c1cc(-c2nnc(Nc3ccc(O)cc3)c3ccccc23)ccc1N1CCOCC1 | 2.74 |
| Cc1cccc(C)c1-n1nnnc1C(c1ccccc1OC(F)(F)F)N1CCC(n2c(=O)[nH]c3ccccc32)CC1 (stereo not drawn) | 3.94 |
| COC(=O)c1ccc2[nH]c3cccc(/C(=C/c4ccccc4)c4ccccc4)c3c2c1 | 3.62 |
| Cc1ccccc1NC(=O)c1nc(S(C)(=O)=O)ncc1Cl | 0.992 |
| COc1ccc(OC)c(NC(=O)CSc2nnc(-c3cccnc3)s2)c1 | 0.792 |
| C[C@H](CO)N1C[C@H](C)[C@H](CN(C)Cc2ccc(C(=O)Nc3ccccc3N)cc2)Oc2c(NC(=O)c3ccncc3)cccc2C1=O | 12 |
| COc1ccc(CCn2c(-c3ccc(OC)cc3)nc3c(c(=O)c4ccccc4n3C)c2=O)cc1 | 7.43 |
| COc1ccc(C)cc1NS(=O)(=O)c1ccc(NC(=O)CN(c2cc([N+](=O)[O-])ccc2C)S(C)(=O)=O)cc1 | 0.426 |
| COc1ccc(C(CNC(=O)c2cccc(N(C)C)c2)N2CCCC2)cc1 (stereo not drawn) | 5.4 |
| CC(C)c1ccc(NC(=O)c2ccc3c(c2)CCN3S(C)(=O)=O)cc1 | 13.9 |
| CC(C)[C@H](C)NC(=O)N(C)C[C@H]1OCc2ccccc2-c2c(n(C)c3ccccc23)C(=O)N([C@H](C)CO)C[C@H]1C | 5.85 |
| CCCCC(=O)Nc1ccc(NC(=O)c2cccs2)cn1 | 18.9 |
| COc1ccc(N(C(=O)c2snc(C(N)=O)c2N)C(C(=O)NC2CCCC2)c2ccco2)c(OC)c1 (stereo not drawn) | 3.85 |
| OCc1ccc2c(c1)c(-c1ccc3c(c1)OCCO3)c(-c1ccccc1)n2-c1ccccc1 | 0.184 |
| COc1ccc(-n2nnnc2CNC(=O)c2ccc3ccccc3c2)cc1 | 6.36 |
| Cc1cccc(C)c1OC1(c2ccccc2)OC(=O)c2ccccc21 (stereo not drawn) | 1.1 |
| COc1ccc(Br)cc1CNc1ccccc1 | 8.98 |
| COC(=O)c1ccc(NC(=O)C23CC4CC(C2)CC(n2cnc(Cl)n2)(C4)C3)cc1 | 1.82 |

| Compound | AC40 [µM] |
| --- | --- |
| O=C(Cc1ccccc1)Nc1ccc(NC(=O)c2cccs2)cc1 | 1.23 |
| Cc1nn2c(NCCCN3CCOCC3)c3c(nc2c1-c1ccccc1)CCC3 | 3.72 |
| Cc1noc(C)c1S(=O)(=O)Nc1ccc2c(c1)C(=O)N([C@@H](C)CO)C[C@@H](C)[C@@H](CN(C)Cc1ccc3c(c1)OCO3)OCCCC[C@@H](C)O2 | 3.78 |
| CCOc1ccc(-c2nnn(CC#N)n2)cc1OC | 1.96 |
| COc1ccc2c(c1)C(C)=CC(C)(C)N2S(=O)(=O)c1ccc(Br)cc1 | 2.69 |
| CCOC(=O)C1=C[C@@H](C(C)(C)C)N(S(=O)(=O)c2ccc(C)cc2)[C@H]1c1ccccc1 | 3.62 |
| COc1ccc(S(=O)(=O)N2CC[C@@H]3[C@H](CO)Nc4ccc(-c5ccccc5F)cc4[C@@H]32)cc1 | 12.4 |
| COC(=O)C[C@@H]1C[C@H]2c3cc(NC(=O)Nc4ccc(C(F)(F)F)cc4)ccc3O[C@H]2[C@H](CO)O1 | 8.45 |
| O=C(Nc1ccc(Nc2ccncc2)cc1)c1ccc([N+](=O)[O-])cc1 | 3.4 |
| Cn1ncc(Cl)c1C(=O)Nc1sc2c(c1C(N)=O)CCC2 | 5.65 |
| CCOc1ccccc1NC(=O)CSc1cn[nH]n1 | 2.47 |
| O=C(NC1CCCCC1)c1cccnc1C(=O)O | 3.2 |
| C[C@H]1CN([C@@H](C)CO)C(=O)c2cccc(NS(=O)(=O)c3ccc(F)cc3)c2O[C@H]1CN(C)Cc1ccc(C(F)(F)F)cc1 | 1.3 |
| COc1ccc(-c2nc(N)c(C#N)c(-c3cccnc3)c2C)cc1 | 0.69 |
| O=C(Nc1ccccc1)C1=C[C@@H](c2ccc(C(F)(F)F)cc2)C[C@@H](OCc2ccc(CO)cc2)O1 | < 2.6 |
| Cc1cc(C)c(S(=O)(=O)Nc2ccccc2-c2ccccc2)c(C)c1 | 3.95 |
| C=CCn1c(SCC(=O)NC(=O)NCc2ccco2)nc2sc(CC)cc2c1=O | 11.3 |
| O=C(NCc1ccccc1)C(c1ccccc1)N(C(=O)c1csnn1)c1ccc(F)cc1 (stereo not drawn) | 4.34 |
| CC12CCC(C1)C(C)(C)C2NS(=O)(=O)c1ccc(F)cc1 (stereo not drawn) | 5.98 |
| COc1ccc(C#Cc2c(-c3ccccc3)n(-c3ccccc3)c3ccc(CO)cc23)cc1 | 2.19 |
| CCOC(=O)C1=CC[C@@H](c2ccc([N+](=O)[O-])cc2)N(S(=O)(=O)c2ccc(C)cc2)[C@H]1c1ccccc1 | 5.13 |
| O=C1OC(Oc2ccc(Br)cc2)(c2ccccc2)c2ccccc21 (stereo not drawn) | 1.46 |
| COc1ccc(N(C(=O)c2snc(C(N)=O)c2N)C(C(=O)NC2CCCCC2)c2ccc(C)o2)cc1 (stereo not drawn) | 5.68 |
| CC1CCN(S(=O)(=O)c2ccc(NC(=O)c3ccccc3F)cc2)CC1 | 15.3 |
| CC(=O)C1=CCC(c2cccc3ccccc23)N(S(=O)(=O)c2ccc(C)cc2)C1 (stereo not drawn) | 18.7 |
